# PubChem BioAssay (NCI)
#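 A five-concentration, 48-hour dose response in 96-well plates underlies each endpoint, interpolated linearly between surrounding concentrations. The concentration for 50% growth inhibition is given as GI50. TGI: total growth inhibition.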
# Legend:
# Test in all cases: DTP human tumour cell line panel, 48 h
# MOLT-4 leukemia = system: MOLT-4 leukemia
# NCI-H226 lung = system: NCI-H226 lung
# SF-295 CNS = system: SF-295 CNS
# A549 NSCLC = system: A549 NSCLC
# BT-549 breast = system: BT-549 breast
# SK-MEL-2 melanoma = system: SK-MEL-2 melanoma
# HL-60(TB) leukemia = system: HL-60(TB) leukemia
# T-47D breast = system: T-47D breast
# MDA-N = system: MDA-N
# NCI-H460 lung = system: NCI-H460 lung
Compound,TGI (MOLT-4 leukemia),TGI (NCI-H226 lung),TGI (SF-295 CNS),TGI (A549 NSCLC),TGI (BT-549 breast),TGI (SK-MEL-2 melanoma),TGI (HL-60(TB) leukemia),TGI (T-47D breast),TGI (MDA-N),TGI (NCI-H460 lung),GI50 (MOLT-4 leukemia),GI50 (NCI-H226 lung),GI50 (SF-295 CNS),GI50 (A549 NSCLC),GI50 (NCI-H460 lung),GI50 (BT-549 breast),GI50 (SK-MEL-2 melanoma),GI50 (HL-60(TB) leukemia),GI50 (T-47D breast)
Cc1ccc2oc3c(c(Br)c(Br)n3C)c(=O)c2c1,> 100 µM,32.9 µM,47.2 µM,51.5 µM,> 100 µM,89 µM,> 100 µM,> 100 µM,,,,,,,,,,,
O=[N+]([O-])/C(C(Cl)=C(Cl)Cl)=C(\N1CCCCC1)n1nnc2ccccc21,18.3 µM,42.6 µM,33.3 µM,51.1 µM,49.4 µM,37.7 µM,,> 100 µM,44.1 µM,47.6 µM,,,,,,,,,
CC(CN(C)C)C(=O)c1ccccc1 (stereo not given),27.6 µM,> 100 µM,> 100 µM,> 100 µM,,66.8 µM,> 57 µM,,,> 100 µM,,,,,,,,,
CC1(C)CCCCCC(C)(CCCO)C1=O (stereo not given),> 100 µM,> 100 µM,> 100 µM,> 100 µM,> 100 µM,> 100 µM,> 100 µM,> 100 µM,,> 100 µM,,,,,,,,,
O=C(Nc1sccc1S(=O)(=O)c1ccccc1)c1ccccc1,> 100 µM,> 100 µM,> 100 µM,> 100 µM,> 100 µM,> 100 µM,,> 100 µM,> 100 µM,> 31.6 µM,,,,,,,,,
COc1ccc(-n2c(=O)n(-c3ccccc3)c(=O)n2-c2ccc(OC)cc2)cc1,> 100 µM,> 100 µM,> 100 µM,> 100 µM,,> 100 µM,> 100 µM,> 100 µM,> 100 µM,,,,,,,,,,
ClCc1cccc(CSc2ncnc3c2ncn3Cc2cccc(CCl)c2)c1,17.2 µM,4.54 µM,5.59 µM,18.4 µM,2.83 µM,6.81 µM,5.03 µM,5.12 µM,,4.76 µM,3.65 µM,1.66 µM,2.13 µM,4.54 µM,2.04 µM,1.32 µM,2.58 µM,2.26 µM,2.31 µM
NC1Cc2ccccc2OC1=O (stereo not given),> 100 µM,> 100 µM,> 100 µM,> 100 µM,> 100 µM,> 100 µM,,> 100 µM,,> 100 µM,,,,,,,,,
CO[C@@H]1C[C@H](OC(N)=O)[C@@H]2C=C[C@@H]3/C=C(C)/C=C/[C@@H](C)[C@H](/C(C)=C/[C@@H](C)NC(C)=O)OC(=O)/C=C/C=C(C)\C=C\[C@]3(C)[C@@H]2C1,13.8 µM,,0.111 µM,0.223 µM,12 µM,2.12 µM,3.04 µM,2.98 µM,2.12 µM,,,,,,,,,,
O=C1CSC2=NC3=C(CSC/C3=C\c3ccccc3)C(c3ccccc3)N12 (stereo not given),> 100 µM,> 100 µM,> 100 µM,> 100 µM,,> 100 µM,> 100 µM,> 100 µM,> 100 µM,> 100 µM,,,,,,,,,
CCC(O)c1ccc(N=Cc2ccccc2O)cc1 (stereo not given),> 100 µM,> 100 µM,> 100 µM,> 100 µM,> 100 µM,> 100 µM,> 100 µM,> 100 µM,,> 100 µM,,,,,,,,,
OC12c3ccccc3C3CCC4(OCCO4)C3C1c1ccccc12 (stereo not given),> 100 µM,> 100 µM,> 100 µM,> 100 µM,,> 100 µM,> 100 µM,,,> 100 µM,,,,,,,,,
COc1ccc2c3c1OC1C34CCN(C)C(C2)C4=CC(I)C1(OC)OC (stereo not given),21.2 µM,59.3 µM,> 100 µM,54.8 µM,36.2 µM,30.3 µM,,48.8 µM,18.8 µM,28 µM,,,,,,,,,
C(=Nc1ccc(-c2nc3ccccc3[nH]2)cc1)c1ccco1,> 100 µM,> 100 µM,,> 100 µM,> 100 µM,> 100 µM,> 100 µM,> 100 µM,> 100 µM,,,,,,,,,,
COc1ccc2nc3n(c2c1)C(=O)c1ccccc1-3,> 100 µM,> 100 µM,> 100 µM,> 100 µM,,> 100 µM,> 100 µM,,> 100 µM,> 100 µM,,,,,,,,,
COc1nc2c(c(=O)n1C)N=C(c1ccc(Cl)cc1)CC(c1ccccc1)N2 (stereo not given),49.6 µM,45.6 µM,57.6 µM,> 100 µM,67.5 µM,42.9 µM,,,37.8 µM,28.1 µM,,,,,,,,,
COC1CCC(=O)N1CN(C(C)=O)c1ccc(C)cc1 (stereo not given),> 100 µM,> 100 µM,> 100 µM,> 100 µM,,> 100 µM,,> 100 µM,> 100 µM,> 100 µM,,,,,,,,,
